# Test results taken from patent US20110294735A1, “MECHANISM OF NEUROMEDIN U ACTION AND USES THEREOF” (MERCK SHARP & DOHME CORP., priority 2008, published 2011).
# Read-outs that look alike come from different tables or passages of the source. Non-standard residues stand in square brackets, D forms with d. No end group written: not given here. hArg = N=C(N)NCCCC[C@H](N)C(=O)O
# Experiments:
# [1] = tested on: PYY levels in plasma; test: Plasma PYY levels in diet-induced obese mice after subcutaneous dosing; type: in vivo
# Protocol: (§1) Animal dosing was as follows. Ad libitum fed male diet-induced obese mice were weighed and dosed subcutaneously about 30 minutes prior to the onset of the dark phase of the light cycle. Animals were either not given food or allowed food during treatment. For NMU studies, plasma was collected by cardiac sticks at two or four hours post dose. For studies with the PEGylated NMU analog, plasma was collected at multiple time points up to 18-hours post dose.
# (§2) GLP-1 levels in plasma were measured using the Total GLP-1 kit from Meso Scale Discovery, Gaithersburg, Md. Glucagon levels were measured using the Metabolic Multiplex kit from Meso Scale Discovery, Gaithersburg, Md. PYY levels were measured using the PYY Luminex assay from Millipore, Billerica, Mass. The data shown reports of glucagon, PYY and GLP-1 levels as pg/mL (all values are reported as mean±SEM and data was analyzed using a two-tailed unpaired Student's t test; p values ≦0.05 were reported as significant and are denoted with an asterisk).
# (§3) Diet-induced obese mice (DIO) were purchased from Taconic Farms. NMUR1 knockout (Nmur1−/−) mice were generated using standard homologous recombination techniques. U.S. Published Application No. 20080172752 discloses NMUR1 knockout mice. NMUR2 knockout (Nmur2−/−) mice were licensed from Deltagen Inc., San Mateo, Calif. and subsequently transferred to Taconic Farms. Mice were individually housed in Tecniplast cages in a conventional SPF facility. Mice were initially maintained on a regular chow diet and then early in their life were switched to a high fat diet (D12492: 60% kcal from fat; Research Diets, Inc., New Brunswick, N.J.) with ad libitum access to water in a 12-hour light/12-hour dark cycle.
# [2] = tested on: total GLP-1 levels in plasma; test: Plasma total GLP-1 levels in diet-induced obese mice after subcutaneous dosing; type: in vivo; conditions: for total GLP-1 levels: 10 mpk
# Protocol: as §1, §2, §3
# [3] = tested on: GLP-1 levels in plasma; test: Plasma GLP-1 levels in wild-type, Nmur1-deficient and Nmur2-deficient mice; type: in vivo; conditions: four-hours post dose, absence of food (FIG. 3)
# Protocol: as §2, §3
# Plasma was collected from wild-type, Nmur1-deficient and Nmur2-deficient mice four-hours post dose in the absence of food.
# [4] = tested on: mice; conditions: cited from earlier work
# [5] = tested on: NMUR1 or NMUR2 receptors; test: Receptor specificity: binding and activation of NMUR1 or NMUR2; type: biochemical; conditions: bind and activate
# [6] = tested on: plasma glucose levels; test: Oral glucose tolerance test, plasma glucose; type: in vivo, mice; conditions: 15 minutes after oral glucose tolerance test (FIG. 6A)
# Protocol: (§4) The Oral Glucose Tolerance Test (OGTT) was performed as follows: Ad libitum fed male diet-induced obese mice were weighed and dosed subcutaneously about 30 minutes prior to the onset of the dark phase of the light cycle. Animals were not given food after dosing. The next day, approximately 18-hours after dosing, basal glucose levels were measured from animals by tail blood. Animals were then administered a glucose dose (1.5 g/kg) by oral gavage and fifteen minutes after dosing with glucose, plasma was collected to evaluate glucagon and glucose levels.
# as §3
# [7] = tested on: glucagon levels in plasma; test: Oral glucose tolerance test, plasma glucagon; type: in vivo, mice; conditions: 15 minutes after oral glucose tolerance test (FIG. 6B)
# Protocol: as §4, §2
# Diet-induced obese mice (DIO) were purchased from Taconic Farms. NMUR1 knockout (Nmur1−/−) mice were generated using standard homologous recombination techniques. U.S. Published Application No. 20080172752 discloses NMUR1 knockout mice. […]
# [8] = tested on: Nmur1 knockout mice; test: Food intake and weight gain in Nmur1 knockout mice after peripheral administration; type: in vivo; conditions: administered peripherally
substance,measurement,setting,value
FRVDEEFQSPFASQSRGYFLFRPRN-CONH2 (FRVDEEFQSPFASQSRGYFLFRPRN-NH2) [NMU],increase of PYY levels,"[1]; 10 mpk, four-hours post dose, obese mice (FIG. 1A)",about two-fold
same,PYY levels,"[1]; 10 mpk, four-hours post dose, obese mice (FIG. 1B)",increased
same,PYY levels,"[1]; 10 mpk, two-hours post dose, obese mice (FIG. 1B)",increased
same,total GLP-1 levels,"[2]; four-hours post dose, obese mice (FIG. 2A)",increased
same,total GLP-1,[2]; chronic treatment 3 mpk/day subcutaneously for two weeks (FIG. 2B),significant increase
same,GLP-1 levels,[3]; Nmur1-deficient mice,not
same,GLP-1 levels,[3]; Nmur2-deficient mice,Increased
same,GLP-1 levels,[3]; wild-type mice,Increased
same,food intake,"[4]; acute administration, centrally or peripherally, mice",reduce
same,core body temperature,"[4]; acute peripheral administration, mice",dose-dependently increases
same,anorectic actions,"[4]; centrally administered, NMUR1-deficient (Nmur1-/-) mice",present
same,anorectic actions,"[4]; centrally administered, NMUR2-deficient (Nmur2-/-) mice",absent
same,"food intake, body weight and adiposity","[4]; chronic administration, centrally or peripherally, mice",reduces
same,anorectic actions,"[4]; peripherally administered, Nmur1-/- mice",absent
same,anorectic actions,"[4]; peripherally administered, Nmur2-/- mice",present
FRVDEEFQSPFASQSRGFWLFRP-(Harg)-N-CONH2 (FRVDEEFQSPFASQSRGFWLFRP[hArg]N-NH2; N-terminus assumed; SMILES CC(C)C[C@H](NC(=O)[C@H](Cc1c[nH]c2ccccc12)NC(=O)[C@H](Cc1ccccc1)NC(=O)CNC(=O)[C@H](CCCNC(=N)N)NC(=O)[C@H](CO)NC(=O)[C@H](CCC(N)=O)NC(=O)[C@H](CO)NC(=O)[C@H](C)NC(=O)[C@H](Cc1ccccc1)NC(=O)[C@@H]1CCCN1C(=O)[C@H](CO)NC(=O)[C@H](CCC(N)=O)NC(=O)[C@H](Cc1ccccc1)NC(=O)[C@H](CCC(=O)O)NC(=O)[C@H](CCC(=O)O)NC(=O)[C@H](CC(=O)O)NC(=O)[C@@H](NC(=O)[C@H](CCCNC(=N)N)NC(=O)[C@@H](N)Cc1ccccc1)C(C)C)C(=O)N[C@@H](Cc1ccccc1)C(=O)N[C@@H](CCCNC(=N)N)C(=O)N1CCC[C@H]1C(=O)N[C@@H](CCCCNC(=N)N)C(=O)N[C@@H](CC(N)=O)C(N)=O),receptor specificity (NMUR1 / NMUR2),[5],bispecific
FALFRPRN-CONH2 (FALFRPRN-NH2),receptor specificity (NMUR1 / NMUR2),[5],bispecific
FRVDEEFQSPFASQSRGFWLFRA-(Harg)-N-CONH2 (FRVDEEFQSPFASQSRGFWLFRA[hArg]N-NH2; N-terminus assumed; SMILES CC(C)C[C@H](NC(=O)[C@H](Cc1c[nH]c2ccccc12)NC(=O)[C@H](Cc1ccccc1)NC(=O)CNC(=O)[C@H](CCCNC(=N)N)NC(=O)[C@H](CO)NC(=O)[C@H](CCC(N)=O)NC(=O)[C@H](CO)NC(=O)[C@H](C)NC(=O)[C@H](Cc1ccccc1)NC(=O)[C@@H]1CCCN1C(=O)[C@H](CO)NC(=O)[C@H](CCC(N)=O)NC(=O)[C@H](Cc1ccccc1)NC(=O)[C@H](CCC(=O)O)NC(=O)[C@H](CCC(=O)O)NC(=O)[C@H](CC(=O)O)NC(=O)[C@@H](NC(=O)[C@H](CCCNC(=N)N)NC(=O)[C@@H](N)Cc1ccccc1)C(C)C)C(=O)N[C@@H](Cc1ccccc1)C(=O)N[C@@H](CCCNC(=N)N)C(=O)N[C@@H](C)C(=O)N[C@@H](CCCCNC(=N)N)C(=O)N[C@@H](CC(N)=O)C(N)=O),receptor specificity (NMUR1 / NMUR2),[5],bispecific
"rat NMU-23: full length NMU, a 23-mer (NMU-23) in rats and mice (YKVNEYQGPVAPSGGFFLFRPRN; ends and bridges not checked; UniProt P12760 144-166, looked up) [reference compound]","body weight, body composition, body temperature and food intake","[4]; chronic central administration, Nmur2-/- transgenic mice",largely unaffected
same,"body weight, body composition and food intake","[4]; chronic peripheral administration, Nmur1-/- transgenic mice",largely unaffected
"Ac-C2FRVDEEFQSPFASQSRGYFLFRPRN-CONH2 (Ac-C((PEG)2 40 kDa)FRVDEEFQSPFASQSRGYFLFRPRN-NH2; also: PEG size not given here) [NMU12, PEGylated NMU analog; differs from NMU9 by the source of the PEG]",PYY levels,"[1]; 10 mpk, 18-hr post dose, absence of food (FIG. 4B)",did not increase
same,PYY levels in plasma,"[1]; 18-hours post dose, presence of food, obese mice (FIG. 4A)",dose-dependently increased
same,total GLP-1 levels,"[2]; 18-hours post dose, absence of food (FIG. 5B)",increased
same,total GLP-1 levels,"[2]; 18-hours post dose, presence of food (FIG. 5A)",increased
same,plasma glucose levels,[6]; 0.1 mpk,reduced
same,plasma glucose levels,[6]; 1 mpk,reduced
same,glucagon levels,[7]; 0.1 mpk,reduced
same,glucagon levels,[7]; 1 mpk,reduced
same,food intake,[8]; Nmur1 knockout mice,reduce food intake
same,weight gain,[8]; Nmur1 knockout mice,reduce weight gain
same,crossing the blood-brain barrier,[8]; inferred from effect in Nmur1 knockout mice,able to cross the blood-brain barrier
